This is an account of results in patent publication US5977136A, “Tetrahydroquinolines as NMDA antagonists” (Glaxo Wellcome SpA, priority 1995, dated 1999).

The term ED50 denotes the dose at which the effect has come halfway, by size or by number of responders.

In one assay the target is T1, strychnine insensitive glycine binding site located on the NMDA receptor complex (Rattus norvegicus, UniProt P35439).
T1 construct: determined using the procedure of Kishimoto H. et al J. Neurochem 1981, 37, 1015-1024; from tissue
Put plainly: biochemical.
Settings: not given
In turn, `O=C(/C=C1\CC(C(=O)[O-])Nc2cc(Cl)ccc21)Nc1ccccc1.[Na+]` (racemic) [Example 2, (+/-)(E)7-Chloro-4-Phenylcarbamoylmethylene-1,2,3,4-Tetrahydro-Quinoline-2- Carboxylic Acid Sodium Salt] had a Ki of 0.0398 µM.

Still in this assay, the particulars now being: strychnine insensitive glycine binding site; read-out: pKi (converted).
As for `CC(=O)Nc1ccc(NC(=O)/C=C2\CC(C(=O)O)Nc3cc(Cl)cc(Cl)c32)cc1` (racemic) [Example 5, (+/-)(E)-4-(4-Acetylamino-Phenylcarbamoylmethylene)-5,7-Dichloro-1,2,3,4-Tetrahydro-Quinoline-2-Carboxylic Acid], the Ki is 0.00794 µM.

Regarding `CC(=O)Nc1cccc(NC(=O)/C=C2\CC(C(=O)O)Nc3cc(Cl)cc(Cl)c32)c1` (racemic) [Example 6, (+/-)(E)-4-(3-Acetylamino-Phenylcarbamoylmethylene)-5,7-Dichloro-1,2,3,4-Tetrahydro-Quinoline-2-Carboxylic Acid], the Ki is 0.0158 µM.

With `O=C(/C=C1\CC(C(=O)O)Nc2cc(Cl)cc(Cl)c21)Nc1cccc(Cl)c1` (racemic) [Example 7, (+/-)(E)-5,7-Dichloro-4-[3-(Chloro)Phenylcarbamoylmethylene]-1,2,3,4-Tetrahydro-Quinoline-2-Carboxylic Acid], the Ki is 0.0398 µM.

Consider `Nc1ccc(NC(=O)/C=C2\CC(C(=O)O)Nc3cc(Cl)cc(Cl)c32)cc1` (racemic) [Example 8, (+/-)(E)-4-(4-Amino-Phenylcarbamoylmethylene)-5,7-Dichloro-1,2,3,4-Tetrahydro-Quinoline-2-Carboxylic Acid], for which the Ki was 0.0158 µM.

Regarding `NC(=O)NCc1ccc(NC(=O)/C=C2\CC(C(=O)O)Nc3cc(Cl)cc(Cl)c32)cc1` (racemic) [Example 9, (+/-)(E)-5,7-Dichloro-4-[4(Ureidomethyl)Phenylcarbamoylmethylene]-1,2,3,4-Tetrahydro-Quinoline-2-Carboxylic Acid], the Ki is 0.00398 µM.

In the case of `O=CNCc1ccc(NC(=O)/C=C2\CC(C(=O)O)Nc3cc(Cl)cc(Cl)c32)cc1` (racemic) [Example 10, (+/-)(E)-5,7-Dichloro-4-[4(Formylaminomethyl)Phenylcarbomoylmethylene]-1,2,3,4-Tetrahydro-Quinoline-2-Carboxylic Acid], the Ki was 0.00501 µM.

Turning to `CC(=O)NCc1ccc(NC(=O)/C=C2\CC(C(=O)O)Nc3cc(Cl)cc(Cl)c32)cc1` (racemic) [Example 11, (+/-)(E)-5,7-Dichloro-4-[4(Acetylaminomethyl)Phenylcarbomoylmethylene]-1,2,3,4-Tetrahydro-Quinoline-2-Carboxylic Acid], the Ki is 0.00501 µM.

In the case of `CC(C)C(=O)Nc1ccc(NC(=O)/C=C2\CC(C(=O)O)Nc3cc(Cl)cc(Cl)c32)cc1` (racemic) [Example 12, (+/-)(E)-5,7-Dichloro-4-[4(Isobutyrylamino)Phenylcarbomoylmethylene]-1,2,3,4-Tetrahydro-Quinoline-2-Carboxylic Acid], the Ki was 0.0158 µM.

As for `CC(C)C(=O)NCc1ccc(NC(=O)/C=C2\CC(C(=O)O)Nc3cc(Cl)cc(Cl)c32)cc1` (racemic) [Example 13], the Ki is 0.0158 µM.

Regarding `O=C(/C=C1\CC(C(=O)O)Nc2cc(Cl)cc(Cl)c21)Nc1ccc(CN2CCOCC2)cc1` (racemic) [Example 14, (+/-)(E)-5,7-Dichloro-4-(4-Morpholin-4-Ylmethyl-Phenylcarbamoylmethylene)-1,2,3,4-Tetrahydro-Quinoline-2-Carboxylic Acid], the Ki is 0.00794 µM.

Turning to `O=C(O)Cc1ccc(NC(=O)/C=C2\CC(C(=O)O)Nc3cc(Cl)cc(Cl)c32)cc1` (racemic) [Example 15, (+/-)(E)-4-(4-Carboxymethyl-Phenylcarbamoylmethylene)-5,7-Dichloro-1,2,3,4-Tetrahydro-Quinoline-2-Carboxylic Acid], the Ki is 0.0191 µM.

`NC(=O)Cc1ccc(NC(=O)/C=C2\CC(C(=O)O)Nc3cc(Cl)cc(Cl)c32)cc1` (racemic) [Example 16, (+/-)(E)-5,7-Dichloro-4-(4-Carbamoylmethyl-Phenylcarbamoylmethylene)-1,2,3,4-Tetrahydro-Quinoline-2-Carboxylic Acid]: the Ki was 0.00661 µM.

With `CC(C)C(=O)NCCc1ccc(NC(=O)/C=C2\CC(C(=O)O)Nc3cc(Cl)cc(Cl)c32)cc1` (racemic) [Example 17, (+/-)(E)-5,7-Dichloro-4-[4-(2-Isobutyrylamino-Ethyl)Phenylcarbamoylmethylene]-1,2,3,4-Tetrahydro-Quinoline-2-Carboxylic Acid], the Ki was 0.0126 µM.

Regarding `CC(=O)NCCc1ccc(NC(=O)/C=C2\CC(C(=O)O)Nc3cc(Cl)cc(Cl)c32)cc1` (racemic) [Example 18, (+/-)(E)-5,7-Dichloro-4-[4-(2-Acetylamino-Ethyl)Phenylcarbamoylmethylene]-1,2,3,4-Tetrahydro-Quinoline-2-Carboxylic Acid], the Ki was 0.0126 µM.

Regarding `CC(C)CC(=O)Nc1ccc(NC(=O)/C=C2\CC(C(=O)O)Nc3cc(Cl)cc(Cl)c32)cc1` (racemic) [Example 19, (+/-)(E)-5,7-Dichloro-4-[4-(3-Methyl-Butyrylamino)-Phenylcarbamoylmethylene]-1,2,3,4-Tetrahydro-Quinoline-2-Carboxylic Acid], the Ki was 0.0186 µM.

`O=C(/C=C1\CC(C(=O)O)Nc2cc(Br)cc(Br)c21)Nc1ccccc1` (racemic) [Example 21, (+/-)-(E)-5,7-Dibromo-4-Phenylcarbamoylmethylene-1,2,3,4-Tetrahydroquinoline-2-Carboxylic Acid]: the Ki is 0.0263 µM.

In the case of `O=C(/C=C1\CC(C(=O)[O-])Nc2cc(Cl)cc(Cl)c21)Nc1ccccc1.[Na+]` (racemic) [Sodium Salt], the Ki is 0.00631 µM.

A further assay deals with NMDA induced convulsions in mice. Put plainly: Inhibition of NMDA induced convulsions in the mouse (procedure of Chiamulera C et al.). The assay is classed as in vivo. Particulars: iv, read-out: ED50 (dose required to protect 50% of the animals from the convulsive action of the NMDA). The source says:
In this test the ability of the compound when administered iv to inhibit the generalized seizures induced by an intracerebroventricular injection of NMDA in mice was examined at a number of dose levels.
`O=C(/C=C1\CC(C(=O)[O-])Nc2cc(Cl)cc(Cl)c21)Nc1ccccc1.[Na+]` (racemic): the ED50 worked out at 1 mg/kg.

Staying with this assay, now noted: mice, compound iv, generalized seizures induced by intracerebroventricular injection of NMDA, read-out: ED50 (dose required to protect 50% of the animals from the convulsive action of the NMDA).
With `O=C(/C=C1\CC(C(=O)[O-])Nc2cc(Cl)ccc21)Nc1ccccc1.[Na+]` (racemic) [Example 2, (+/-)(E)7-Chloro-4-Phenylcarbamoylmethylene-1,2,3,4-Tetrahydro-Quinoline-2- Carboxylic Acid Sodium Salt], the ED50 came to 0.2 mg/kg.

For the compound `CC(=O)Nc1ccc(NC(=O)/C=C2\CC(C(=O)O)Nc3cc(Cl)cc(Cl)c32)cc1` (racemic) [Example 5, (+/-)(E)-4-(4-Acetylamino-Phenylcarbamoylmethylene)-5,7-Dichloro-1,2,3,4-Tetrahydro-Quinoline-2-Carboxylic Acid], the ED50 amounted to 0.2 mg/kg.
